The subject of test [1] is MDA-MB-231. Description: MTS assay cell viability, MDA-MB-231. Format: cell-based. Particulars: Homo sapiens, read-out: IC50 values according to the cell viability inhibition. How it is done:
MDA-MB-231 (Cell seeding numbers: 0.8(M231) x 10^4 cells/wells (confluency ≧ 25%), which is a human triple-negative breast cancer (TNBC) cell line, and JIMT-1 (Cell seeding numbers: 0.8(JIMT) x 10^4 cells/wells (confluency ≧ 25%)), which is a HER2 positive breast cancer (HER2+ BC) cell line, were used in the experiment.
The above cell lines were cultured in Dulbecco's modified Eagle's medium (DMEM) containing 10% fetal bovine serum (FBS), streptomycin-penicillin (100 U/mL), and Fungizone (0.625 µg/mL) at 5% CO2 and 37°C.
(§1) The human breast cancer cell lines MDA-MB-231 and JIMT-1 were treated with chromene-benzimidazole derivatives of Formulas 1-1 to 1-53 at various concentrations of 0, 1, and 5 µM, respectively, for 72 hours, and then cell viability was measured using the MTS assay technique. In the MTS assay, cells were attached to a 96-well plate for 24 hours, treated with the chromene-benzimidazole derivative for 72 hours, developed with MTS (3-(4,5-dimethylthiazol-2-yl)-5-(3-carboxymethoxyphenyl)-2-(4-sulfophenyl)-2H-tetrazolium) for 4 hours, and then the absorbance was measured at 490 nm using a Spectramax Plus384 microplate analyzer.
(§2) After treating the triple-negative breast cancer cell lines MDA-MB-231 and BT549 with the chromene-benzimidazole derivative Compound (1-1) by concentration (0, 0.01, 0.05, 0.1, 0.5, 1, 5, 10, 20, and 40 µM) for 72 hours, concentration-dependent cell viability (MTS assay) inhibition and IC50 values according to the cell viability inhibition were confirmed and shown in FIGS. 7A and 7B.
The […] MDA-MB-231 and […] were treated with the chromene-benzimidazole derivative compounds (1-13, 1-19, and 1-22) by concentration (0, 0.01, 0.05, 0.1, 0.25, 0.5, 1, 2, and 5 µM) for 72 hours. Detailed treatment conditions were the same as disclosed in Example 2.1. Concentration-dependent cell viability (MTS assay) inhibition and IC50 values according to the cell viability inhibition were confirmed and shown in FIG. 9.
After treating the triple-negative breast cancer cell line MDA-MB-231 with the chromene-benzimidazole derivative compounds (1-9, 1-10, 1-11, 1-15, 1-16, and 1-17) by concentration (0, 0.01, 0.05, 0.1, 0.25, 0.5, 1, 2, and 5 µM) for 72 hours, concentration-dependent cell viability (MTS assay) inhibition and IC50 values according to the cell viability inhibition were confirmed and shown in FIG. 13. […]
Background: Tetrazolium assays rely on reduction of a dye to a coloured formazan, in cell work by metabolically active cells.

The test system of test [2] is MDA-MB-231. Description: Morphological changes of cells by optical microscope, MDA-MB-231. Format: cell-based, human. Particulars: 72 hours; for morphological changes of cells: 0.5 µM. As to the method: (§3) After treating the MDA-MB-231 and BT549 cell lines with the 1-1 compound by concentration (0, 5, 10, and 20 µM) for 72 hours, morphological changes of cells were observed using an optical microscope, which is shown in FIG. 7C.
Subsequently, an experiment was performed as follows to confirm the targeting ability for Compounds 1-13 and 1-22. After treating the MDA-MB-231 cell line with the 1-22 and 1-13 compounds at a concentration of 0.5 µM for 72 hours, morphological changes of cells were observed using an optical microscope, and micrographs are shown in FIG. 10A. […] In addition, after treating MDA-MB-231 with the 1-22 and 1-13 compounds at a concentration of 0.5 µM for 72 hours, expression of HSP90 chaperon complexes (HSP90, HSP70, HSP27, HSF-1), HSP90 client proteins (EGFR, AKT, JAK2, STAT3), Tubulin targeting ability (Tubulin, mitosis marker p-His H3), and apoptosis-related factors (Cleaved caspase-7, Survivin, Mcl-1) proteins was confirmed using a Western blot technique, which is shown in FIG. 10B.

For test [3], the system named is hematologic cancer cell line HL-60. Description: MTS assay cell viability, HL-60. Format: cell-based. The following applies: 0, 0.1, 0.5, 1, 5, and 10 µM, 72 hours. How it is done:
(§4) After treating a hematologic cancer cell line HL-60, a liver cancer cell line HepG2, a lung cancer cell line H1299, a colorectal cancer cell line HCT116, and an ovarian cancer cell line SKOV3 with the chromene-benzimidazole derivative compound 1-22 by concentration (0, 0.1, 0.5, 1, 5, and 10 µM) for 72 hours, concentration-dependent cell viability (MTS assay) inhibition and IC50 values according to the cell viability inhibition were confirmed and shown in FIG. 11.

For test [4], the system named is liver cancer cell line HepG2. Put plainly: MTS assay cell viability, HepG2. Format: cell-based. The following applies: 0, 0.1, 0.5, 1, 5, and 10 µM, 72 hours. How it is done: as §4
The subject of test [5] is lung cancer cell line H1299. Put plainly: MTS assay cell viability, H1299. Format: cell-based. The following applies: 0, 0.1, 0.5, 1, 5, and 10 µM, 72 hours. As to the method: as §4
Test [6] has as its system colorectal cancer cell line HCT116. Put plainly: MTS assay cell viability, HCT116. Format: cell-based. The following applies: 0, 0.1, 0.5, 1, 5, and 10 µM, 72 hours. As to the method:
as §4

Test [7] deals with ovarian cancer cell line SKOV3. Put plainly: MTS assay cell viability, SKOV3. Format: cell-based. The following applies: 0, 0.1, 0.5, 1, 5, and 10 µM, 72 hours. As to the method: as §4
Test [8] relates to BT549. Description: MTS assay cell viability, BT549. Format: cell-based. The following applies: Homo sapiens, BT-549, 72 hours, read-out: IC50 values according to the cell viability inhibition. How it is done: as §1, §2
The subject of test [9] is BT549. Description: Morphological changes of cells by optical microscope, BT549. Particulars: 0, 5, 10, and 20 µM, 72 hours. Format: cell-based. How it is done: as §3
Test [10] deals with MDA-MB-231. Put plainly: Annexin V/PI staining flow cytometry, MDA-MB-231. Format: cell-based, human. The text has this: (§5) The degree of apoptosis of MDA-MB-231 and BT549 cells by the compound of Formula 1-1 was confirmed by a flow cytometer through Annexin V/PI staining, which is shown in FIG. 7D.
For orientation: A flow cytometer gives signals particle by particle.

Test [11] relates to BT549. Put plainly: Annexin V/PI staining flow cytometry, BT549. Format: cell-based.
Excerpt: as §5

Test [12] has as its system C-terminal domain of Hsp90. Description: Hsp90 C-terminal activity by binding analysis with C recombinant protein. The following applies: compared to Novobiocin. The source says:
In order to evaluate the ability to inhibit the C-terminal domain of Hsp90, it was attempted to evaluate the ability to inhibit Hsp90 C-terminal activity through analysis of binding force between the 1-1 compound, a C-terminal Hsp90 inhibitor Novobiocin, and an N-terminal inhibitor Onalespib, and a C recombinant protein.

Test [13] deals with STAT3, c-MET, ERK, and AKT. Description: Western blot of HSP90 client proteins in MDA-MB-231. Format: cell-based, human. The following applies: 0, 5, 10, and 20 µM, 72 hours.
The test system of test [14] is tubulin. Put plainly: Western blot of tubulin and apoptosis-related proteins in MDA-MB-231. Format: cell-based, human. The following applies: 0, 5, 10, and 20 µM, 72 hours. As to the method: Subsequently, after treating the MDA-MB-231 cell line with the compound of Formula 1-1 by concentration (0, 5, 10, and 20 µM) for 72 hours, degradation of tubulin and expression of apoptosis-related proteins were confirmed by Western blot, which is shown in FIG. 8C.
For orientation: In western blotting, separated proteins are transferred to a membrane and probed.

Test [15] concerns BT549. Description: Propidium iodide DNA content flow cytometry (cell cycle), BT549. Format: cell-based. Particulars: 0, 5, 10, and 20 µM, 72 hours.
The mark [16] stands for this setting: MDA-MB-231 and JIMT-1 treated, cell line of the values not given, 72 hours.

Molecules are shown by their SMILES. Like-named read-outs stand apart in the source and are kept apart here.

The IC50 is the concentration that inhibits the measured activity by half.

On to `COc1ccc(-c2nc3cc(NC(=O)Nc4ccc5c(c4OC)C=CC(C)(C)O5)ccc3[nH]2)cn1` [Compound 1-15, 1-(5-methoxy-2,2-dimethyl-2H-chromen-6-yl)-3-(2-(6-methoxypyridin-3-yl)-1H-benzo[d]imidazol-5-yl)urea], for which, in test [1] (MDA-MB-231, 72 hours), the IC50 is 452 nM.

With `COc1c(NC(=O)Nc2ccc3[nH]c(-c4cccc(F)c4)nc3c2)ccc2c1C=CC(C)(C)O2` [Compound 1-10, 1-(2-(3-fluorophenyl)-1H-benzo[d]imidazol-5-yl)-3-(5-methoxy-2,2-dimethyl-2H-chromen-6-yl)urea], the IC50 in [1] (MDA-MB-231, 72 hours) came to 829 nM.

Take `COc1c(NC(=O)Nc2ccc3[nH]c(-c4ccc(Cl)cc4)nc3c2)ccc2c1C=CC(C)(C)O2` [Compound 1-11, 1-(2-(4-chlorophenyl)-1H-benzo[d]imidazol-5-yl)-3-(5-methoxy-2,2-dimethyl-2H-chromen-6-yl)urea]: the IC50 in [1] (MDA-MB-231, 72 hours) was 335 nM.

As for `COc1c(NC(=O)Nc2ccc3[nH]c(-c4ccc(F)cc4)nc3c2)ccc2c1C=CC(C)(C)O2` [Compound 1-9, 1-(2-(4-fluorophenyl)-1H-benzo[d]imidazol-5-yl)-3-(5-methoxy-2,2-dimethyl-2H-chromen-6-yl)urea], the IC50 in test [1] (MDA-MB-231, 72 hours) is 273 nM.

As to `COc1c(NC(=O)Nc2ccc3[nH]c(-c4ccc(C#N)cc4)nc3c2)ccc2c1C=CC(C)(C)O2` [Compound 1-13, 1-(2-(4-cyanophenyl)-1H-benzo[d]imidazol-5-yl)-3-(5-methoxy-2,2-dimethyl-2H-chromen-6-yl)urea], in test [1] (setting [16]), the IC50 stood at 154 nM. The “morphological changes of cells” value in test [2] was “Typical morphological changes of cell cycle arrest and apoptosis”. The cell viability inhibition entry in test [3], in test [4], in test [5], in test [6] and in test [7] was “effective cell viability inhibition” in each case.

For the compound `COc1c(NC(=O)Nc2ccc3[nH]c(Cl)nc3c2)ccc2c1C=CC(C)(C)O2` [Compound 1-1, 1-(2-chloro-1H-benzo[d]imidazol-5-yl)-3-(5-methoxy-2,2-dimethyl-2H-chromen-6-yl)urea], the IC50 in [1] (MDA-MB-231, 72 hours) amounted to 5660 nM; in test [8] it was 8490 nM. Further, the “morphological changes of cells (apoptosis)” value was “apoptosis was induced in a concentration-dependent manner” in [2] (0, 5, 10, and 20 µM); “apoptosis was induced in a concentration-dependent manner” in test [9]. Also, the degree of apoptosis result in test [10] is “early and late apoptosis were induced”; in test [11] it was “early and late apoptosis were induced”. Also, the “C-terminal HSP90 activity” value in test [12] is on record as “lowered C-terminal HSP90 activity to less than half compared to the existing Novobiocin”. Moreover, the “protein expression and phosphorylation of HSP90 client proteins” value in test [13] was “decreases in protein expression and phosphorylation of STAT3, c-MET, ERK, and AKT”. In addition, the “degradation of tubulin / tubulin polymerization reaction” value in [14] was “could inhibit a tubulin polymerization reaction”. For the same compound, the “cell cycle (DNA content)” value in test [15] was “G2/M phase cell cycle arrest”.

With `COc1c(NC(=O)Nc2ccc3[nH]c(-c4ccc(F)cc4F)nc3c2)ccc2c1C=CC(C)(C)O2` [Compound 1-19, 1-(2-(2,4-difluorophenyl)-1H-benzo[d]imidazol-5-yl)-3-(5-methoxy-2,2-dimethyl-2H-chromen-6-yl)urea], the IC50 in test [1] (setting [16]) worked out at 1060 nM.

In the case of `COc1cc(-c2nc3cc(NC(=O)Nc4ccc5c(c4OC)C=CC(C)(C)O5)ccc3[nH]2)cc(OC)c1OC` [Compound 1-17, 1-(5-methoxy-2,2-dimethyl-2H-chromen-6-yl)-3-(2-(3,4,5-trimethoxyphenyl)-1H-benzo[d]imidazol-5-yl)urea], in [1] (MDA-MB-231, 72 hours), the IC50 amounted to 586 nM.

On to `COc1c(NC(=O)Nc2ccc3[nH]c(-c4ccc(C)cc4)nc3c2)ccc2c1C=CC(C)(C)O2` [Compound 1-22, 1-(5-methoxy-2,2-dimethyl-2H-chromen-6-yl)-3-(2-(p-tolyl)-1H-benzo[d]imidazol-5-yl)urea], for which, in test [1] (setting [16]), the IC50 stood at 276 nM. For the same compound, in [2], the “morphological changes of cells” value is “Typical morphological changes of cell cycle arrest and apoptosis”. For the same compound, the cell viability inhibition entry in test [3], in test [4], in test [5], in [6] and in [7] was “effective cell viability inhibition” each time.

As to `COc1c(NC(=O)Nc2ccc3[nH]c(-c4ccc(N(C)C)cc4)nc3c2)ccc2c1C=CC(C)(C)O2` [Compound 1-16, 1-(2-(4-(dimethylamino)phenyl)-1H-benzo[d]imidazol-5-yl)-3-(5-methoxy-2,2-dimethyl-2H-chromen-6-yl)urea], the IC50 in [1] (MDA-MB-231, 72 hours) was found to be 960 nM.

The values above are taken from patent publication EP4733300A1, “NOVEL CHROMENE-BENZIMIDAZOLE DERIVATIVE OR PHARMACEUTICALLY ACCEPTABLE SALT THEREOF, AND USE THEREOF” (Korea University Research and Business Foundation, priority 2023, dated 2024).
